This passage reports IC50 and ED50 results from publication PMC13168289, “Potent acridone antimalarial against all three life stages of Plasmodium” (Nature Communications, 2026).

Read-outs that look alike come from different tables or passages of the source.

Test [1] relates to P. falciparum mutant T111 lines. Kind of test: drug susceptibility of T111-selected cyt b mutant lines. The class given is cell-based, Plasmodium falciparum. The method, then: DNA extractions were performed on clonal parasites using the QIAamp DNA extraction kit (QIAGEN Inc, Valencia, CA) or ZYMO Quick gDNA Miniprep kit (Zymo Research Corp, Irvine, CA). For sequencing of the open reading frame of pfcytb, PCR was performed with genomic DNA using forward and reverse flanking primers for cyt b primer 1: 5’-[…]-3’ and primer 2: 5’-[…]-3’. PCR products were subjected to enzymatic cleanup with ExoSAP-IT (Thermo Fisher Scientific) and sent for Sanger sequencing (Eurofins Genomics, Louisville, KY) with PCR primer 2 paired with an internal forward primer: 5’-[…]-3’ and an internal reverse primer: 5’-[…]-3’. Sequences were assembled using 4Peaks software (Nucleobytes, Amsterdam, Netherlands) and aligned with Clustal Omega (EMBL-EBI). For sequencing of the open reading frame of pfdhodh, PCR was performed with genomic DNA using forward primer: 5’-[…]-3’ and reverse primer: 5’-[…]-3’. PCR products were prepared for Sanger sequencing and analyzed as described above, except using two forward primers: 5’-[…]-3’ and 5’-[…]-3’ and with two reverse primers: 5’-[…]-3’ and 5’-[…]-3’.
(§1) Drug susceptibility assays against P. falciparum strains were performed using a SYBR Green based assay. D6 and Dd2 were obtained from MR4. Tm90-C2B was obtained from WRAIR. Dd2-D1^I22L and ELQ-300 were obtained from VAPORHCS. D10yDHODH was obtained as a courtesy from Dr. Akhil Vaidya at Drexel University. P. yoelii ATV^r and ELQ-300^r clones were obtained from VAPORHCS.

The subject of test [2] is P. yoelii wild type, ATV^r and ELQ-300^r clones. The test can be described thus: 4-day suppression model with ATV- and ELQ-300-resistant clones. The class given is in vivo, P. yoelii in CF1 mice. The settings on record: (95% CI).
Description: Animals were housed at the VAPORHCS in Thoren Maxi-Miser microisolator cages (78 sq. in. floor space) with a maximum density of five females or four males per cage. Cages were maintained on a 12-h light/dark cycle and provided with autoclaved nesting materials (nestlets) for environmental enrichment. All mice had ad libitum access to food and water. Four- to five-week-old female and male outbred CF1 mice (Charles River Laboratories, Raleigh, NC, USA) were randomly assigned to treatment and control groups using a simple randomization procedure (e.g., computer-generated random numbers) to ensure balanced distribution of baseline body weights and starting parasitemia levels across all cohorts. Groups of four mice (n = 4, mean body weight of each group was ~30 g) were infected intravenously with 3.5 × 10^4 P. yoelii (Kenya strain, MRA-428) from a donor animal. Drug administration commenced the day after the animals were inoculated (Day 1). The test drug or the drug combination was dissolved in PEG-400 and administered by oral gavage once daily for 4 successive days in the 4-day suppression model, but only once on Day 1 in the single-dose cure model. Blood was collected via the tail vein with the aid of a syringe needle on Day 5 and then at weekly intervals through Day 28. Blood films were Giemsa-stained and examined microscopically to determine the level of parasitemia. All mice were observed daily to assess clinical signs. Animals with observable parasitemia following the experiments were euthanized; animals cleared of parasitemia from their bloodstream were observed daily with assessment of parasitemia performed weekly until Day 28, at which point, the animal(s) were scored as cured of the infection and then humanely euthanized. All treated mice with a negative smear on Day 28 were considered cured (100% protection).
as §1

In test [3] the test system is P. falciparum D6, Dd2, Tm90-C2B, Dd2-D1^I22L, D10yDHODH. The test can be described thus: microbe, parasite or virus in culture. It is filed as cell-based, Plasmodium falciparum. The settings on record: read-out: in vitro IC50 vs P. falciparum. The method, then:
as §1

Test [4] concerns P. falciparum K13 mutant parasites SP045 and SP060. The test can be described thus: Growth, Resistance, and Recovery Assay (GRRA), ring-stage survival dose-response. It is filed as cell-based, Plasmodium falciparum. Particulars: Plasmodium falciparum. The method, then:
These isolates carry the validated R561H Kelch 13 propeller domain mutation associated with delayed parasite clearance in East Africa[24],[25]. Using the 6-hour GRRA[23], all strains were thawed, frozen, and cultured under standard conditions at 5% hematocrit. Samples parasitemia was measured by flow cytometry. Parasite cultures that were predominantly segmented schizonts were synchronized using a single Percoll layer method. Cultures that met quality control requirements of ≥70% early ring stage and ≥1% parasitemia were adjusted to 0.25% parasitemia at 2% hematocrit. […] The GRRA50 implements 11 RSA experiments to generate a dose-response curve for each parasite line per drug. Master mixes of samples were aliquoted into 2 technical replicates of 275 µL each in 96 well plates (2 treated each condition, 2 untreated). At 6 h post-exposure, 200 µL of media was removed from the wells and replaced with 200 µL of incomplete media and spun for 3 min at 800 g to rinse. The rinse was repeated a total of 3 times, after which 200 µL complete media was added back to the wells. At 120 h post-treatment, thin microscopy smears were made using 2 µL of culture for each sample and 20 µL of culture was transferred to PCR strips and stored at −80 °C until qPCR quantification. A standard curve of known parasitemia was generated using the NF54 parasite line for each qPCR quantification for conversion from Cycle threshold (Ct) to parasitemia and comparison between qPCR experiments. Replicate viability was calculated according to the GRRA method. Each individual reaction mixture and cycling conditions were set to previously used methods. Ct was calculated using AB1 SDA 2.4.1. software. […] We find that commonly reported thresholds (cutoffs) for resistance (e.g., 1% survival in traditional RSA) may not be broadly applicable, especially with lower thresholds subject to potential artifacts due to markedly low survival rates of ART-sensitive and low-level ART-resistant parasites. Regular RSA relies on a single drug concentration, 700 nM. To gain a more fine-scale quantification to compare drug susceptibilities with relevance to therapeutic success and failure, we developed the GRRA50 to generate full dose-response curves for precise quantitative comparisons.

Setting [5] is: Plasmodium falciparum, DD2, Supplementary Table 4, Dd2.
Setting [6] is: Plasmodium falciparum, DD2, Supplementary Table 4, Dd2-A131S-140I-259L-264L.
Setting [7] is: Plasmodium falciparum, DD2, Supplementary Table 4, Dd2-B131S-140I-259L-264L.
[8] abbreviates: Plasmodium falciparum, DD2, Supplementary Table 4, Dd2-D0119L-131S-259L (pfdhodh mutation).
Setting [9] is: Plasmodium falciparum, DD2, Supplementary Table 4, Dd2-D1131S-140I-259L (pfdhodh mutation).
The mark [10] stands for this setting: Dd2-A^131S-140I-259L-264L, read-out: inhibition IC50 vs P. falciparum.
[11] abbreviates: Dd2-A^131S-140I-259L, read-out: inhibition IC50 vs P. falciparum.
Setting [12] is: Dd2-B^87V-131S-140I-259L, read-out: inhibition IC50 vs P. falciparum.
The mark [13] stands for this setting: Dd2-B^131S-140I-259L-264L, read-out: inhibition IC50 vs P. falciparum.
Setting [14] is: Dd2-C0^119L-131S-259L (pfdhodh mutation), read-out: inhibition IC50 vs P. falciparum.
The mark [15] stands for this setting: Dd2-C1^131S-140I-259L (pfdhodh mutation), read-out: inhibition IC50 vs P. falciparum.
Where [16] appears, read: Dd2, read-out: inhibition IC50 vs P. falciparum.
Setting [17] is: Dd2^131S-259L, read-out: inhibition IC50 vs P. falciparum.
[18] abbreviates: Dd2^131S, read-out: inhibition IC50 vs P. falciparum.
[19] abbreviates: Dd2^259L, read-out: inhibition IC50 vs P. falciparum.

On to `CCCCN(CCCC)CC(O)c1cc(Cl)cc2c1-c1ccc(Cl)cc1/C2=C/c1ccc(Cl)cc1` (centres unmarked) [LUM, lumefantrine], for which the IC50 in test [1] (setting [5]) came to 0.0012 ± 9.8e-05 µM; in test [1] (setting [6]), 0.0017 ± 8.6e-05 µM; in test [1] (setting [7]), 0.0017 ± 0.00036 µM; in test [1] (setting [8]) it was 0.0015 ± 0.00011 µM; in test [1] (setting [9]) it was 0.0024 ± 0.00011 µM.
On to `CO/C(=C/C(N)=O)[C@H](C)[C@H](/C=C/c1csc(-c2csc([C@@H](C)/C=C/C=C/C(C)C)n2)n1)OC` [MYX, myxothiazol], for which the IC50 in test [1] (setting [10]) is 0.016 ± 0.0041 µM; in test [1] (setting [11]), 0.192 ± 0.011 µM; in test [1] (setting [12]) it was 0.373 ± 0.011 µM; in test [1] (setting [13]), 0.034 ± 0.0033 µM; in test [1] (setting [14]) it was 1.54 ± 0.11 µM; in test [1] (setting [15]) it was 0.723 ± 0.141 µM. For the same compound, the IC50 in test [1] (setting [16]) came to 0.024 ± 0.0034 µM; in test [1] (setting [17]) it was 0.975 ± 0.139 µM; in test [1] (setting [18]) it was 0.383 ± 0.038 µM; in test [1] (setting [19]) it was 0.064 ± 0.013 µM.
For the compound `Clc1ccc2c(N3CCN(CCCN4CCN(c5ccnc6cc(Cl)ccc56)CC4)CC3)ccnc2c1` [PIP, piperaquine], the IC50 is 0.0074 ± 0.00057 µM in test [1] (setting [5]); 0.0099 ± 0.00065 µM in test [1] (setting [6]); 0.012 ± 0.0023 µM in test [1] (setting [7]); 0.011 ± 0.0012 µM in test [1] (setting [8]); 0.0091 ± 0.0017 µM in test [1] (setting [9]).
Take `COc1cc2[nH]c(C)c(-c3ccc(Oc4ccc(OC(F)(F)F)cc4)cc3)c(=O)c2cc1Cl` [ELQ-300]: the IC50 in test [1] (setting [10]) worked out at 0.035 ± 0.0032 µM; in test [1] (setting [11]) it was 0.052 ± 0.0055 µM; in test [1] (setting [12]), 0.067 ± 0.0046 µM; in test [1] (setting [13]) it was 0.025 ± 0.0027 µM; in test [1] (setting [14]) it was 0.221 ± 0.05 µM; in test [1] (setting [15]) it was 0.225 ± 0.073 µM. Moreover, the IC50 is 0.038 ± 0.005 µM in test [1] (setting [16]); 0.026 ± 0.0052 µM in test [1] (setting [17]); 0.02 ± 0.0058 µM in test [1] (setting [18]); 0.023 ± 0.0043 µM in test [1] (setting [19]); 0.0035 ± 0.00023 µM in test [3] (D6); over 2.5 µM in test [3] (D10yDHODH). Moreover, the IC50 in test [3] (Dd2-D1^I22L (ELQ-300-resistant)) was 0.245 ± 0.027 µM; in test [3] (Dd2) it was 0.0031 ± 0.00015 µM; in test [3] (Tm90-C2B (cyt b Y268S, ATV-resistant)), 0.0013 ± 8.4e-05 µM. In addition, the ED50 in test [2] (P. yoelii ATVrY268S) is 0.040 (0.036–0.044) mg/kg/day; in test [2] (P. yoelii ELQ-300rI22L), 1.27 (0.97–1.67) mg/kg/day; in test [2] (P. yoelii wild type), 0.031 (0.029–0.033) mg/kg/day.
As for ELQ-400, the IC50 stood at 0.08 ± 0.015 µM in test [1] (setting [10]); 0.133 ± 0.017 µM in test [1] (setting [11]); 0.177 ± 0.0031 µM in test [1] (setting [12]); 0.126 ± 0.032 µM in test [1] (setting [13]); 0.255 ± 0.062 µM in test [1] (setting [14]); 0.501 ± 0.101 µM in test [1] (setting [15]). The IC50 came out at 0.004 ± 0.00045 µM in test [1] (setting [16]), 0.028 ± 0.013 µM in test [1] (setting [17]), 0.0042 ± 0.00041 µM in test [1] (setting [18]) and 0.024 ± 0.0067 µM in test [1] (setting [19]).
As for `C[C@H]1[C@@H](O)O[C@@H]2O[C@@]3(C)CC[C@H]4[C@H](C)CC[C@@H]1[C@@]24OO3` [DHA, dihydroartemisinin], the IC50 in test [1] (setting [5]) was determined as 0.0017 ± 0.00014 µM; in test [1] (setting [6]), 0.0023 ± 0.00025 µM; in test [1] (setting [7]), 0.0023 ± 0.00018 µM; in test [1] (setting [8]), 0.0022 ± 0.00018 µM; in test [1] (setting [9]), 0.0024 ± 0.0002 µM; in test [4] (read-out: GRRA50, SP045 (K13 V555A, ART-S)), 0.0077 µM. Further, in test [4] (read-out: GRRA50, SP060 (K13 R561H, ART-R)), the IC50 came to 0.025 µM.
Consider `Cc1cc(Nc2ccc(S(F)(F)(F)(F)F)cc2)n2nc(C(C)(F)F)nc2n1` [DSM265], for which the IC50 was determined as 0.0032 ± 0.0003 µM in test [1] (Plasmodium falciparum, DD2, read-out: inhibition IC50 vs P. falciparum, Dd2); 0.0032 ± 0.00052 µM in test [1] (Plasmodium falciparum, DD2, read-out: inhibition IC50 vs P. falciparum, Dd2-A^131S-140I-259L); 0.0012 ± 7.5e-05 µM in test [1] (Plasmodium falciparum, DD2, read-out: inhibition IC50 vs P. falciparum, Dd2-A^131S-140I-259L-264L); 0.0035 ± 0.00037 µM in test [1] (Plasmodium falciparum, DD2, read-out: inhibition IC50 vs P. falciparum, Dd2-B^87V-131S-140I-259L); 0.0028 ± 0.0003 µM in test [1] (Plasmodium falciparum, DD2, read-out: inhibition IC50 vs P. falciparum, Dd2-B^131S-140I-259L-264L); 0.795 ± 0.235 µM in test [1] (Plasmodium falciparum, DD2, read-out: inhibition IC50 vs P. falciparum, Dd2-C0^119L-131S-259L (pfdhodh mutation)). For the same compound, the IC50 is 0.563 ± 0.203 µM in test [1] (Plasmodium falciparum, DD2, read-out: inhibition IC50 vs P. falciparum, Dd2-C1^131S-140I-259L (pfdhodh mutation)); 0.0019 ± 0.00022 µM in test [1] (Plasmodium falciparum, DD2, read-out: inhibition IC50 vs P. falciparum, Dd2^131S); 0.0028 ± 0.0012 µM in test [1] (Plasmodium falciparum, DD2, read-out: inhibition IC50 vs P. falciparum, Dd2^131S-259L); 0.0033 ± 0.001 µM in test [1] (Plasmodium falciparum, DD2, read-out: inhibition IC50 vs P. falciparum, Dd2^259L).
